# Results published in US9765105B2, “Macrolide compound” (Pulike Biological Engineering, Inc., priority 2013, dated 2017).
# Assays:
# Assay in all cases: in vitro susceptibility, MIC by mini broth dilution
# Assay type in all cases: cell-based
# [1] = tested on: Pasteurella multocida CVCC399; conditions: strain CVCC399
# In short: (§1)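 Following the NCCLS standard, each compound is serially halved in DMSO to give 11 concentrations, run in duplicate alongside a control well. Inocula come from colonies grown 20 h at 35° C and are diluted 1:200 into broth; MIC is taken by mini broth dilution.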
# Haemophilus parasuis = tested on: Haemophilus parasuis
# In short: as §1
# [2] = tested on: Streptococcus equines CVCC556; conditions: strain CVCC556
# In short: as §1
# [3] = tested on: Actinobacillus pleuropneumoniae CVCC262; conditions: strain CVCC262
# In short: as §1
# [4] = tested on: Staphylococcus aureus CVCC26003; conditions: strain CVCC26003
# In short: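 MICs were determined by mini broth dilution under NCCLS standards in CAMHB, using revived S. aureus CVCC26003 subcultured 20 h at 35° C. Compounds were two-fold serially diluted in DMSO across 11 wells, with duplicate rows. Bacterial suspension was diluted 1:200 in medium before inoculation.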
SMILES,"MIC values, Pasteurella multocida CVCC399 [1]","MIC values, Haemophilus parasuis (Haemophilus parasuis)","MIC values, Streptococcus equines CVCC556 [2]","MIC values, Actinobacillus pleuropneumoniae CVCC262 [3]","MIC values, Staphylococcus aureus CVCC26003 [4]"
CCCN1C[C@H](C)[C@@H](O)[C@](C)(O)[C@@H](CC)OC(=O)[C@H](C)[C@@H](O[C@H]2C[C@@](C)(OC)[C@](O)(CNCc3ccc(OC)cc3)[C@H](C)O2)[C@H](C)[C@@H](O[C@@H]2O[C@H](C)C[C@H](N(C)C)[C@H]2O)[C@](C)(O)C[C@H]1C [syzx-118],0.25 ug/mi,0.25 ug/mi,0.25 ug/mi,0.25 ug/mi,0.25 ug/mi
CCCN1C[C@H](C)[C@@H](O)[C@](C)(O)[C@@H](CC)OC(=O)[C@H](C)[C@@H](O[C@H]2C[C@@](C)(OC)[C@](O)(CNCc3ccc([N+](=O)[O-])cc3)[C@H](C)O2)[C@H](C)[C@@H](O[C@@H]2O[C@H](C)C[C@H](N(C)C)[C@H]2O)[C@](C)(O)C[C@H]1C [syzx-119],1 ug/mi,0.25 ug/mi,0.25 ug/mi,0.25 ug/mi,0.25 ug/mi
CCCN1C[C@H](C)[C@@H](O)[C@](C)(O)[C@@H](CC)OC(=O)[C@H](C)[C@@H](O[C@H]2C[C@@](C)(OC)[C@](O)(CNCc3ccc(Cl)cc3)[C@H](C)O2)[C@H](C)[C@@H](O[C@@H]2O[C@H](C)C[C@H](N(C)C)[C@H]2O)[C@](C)(O)C[C@H]1C [syzx-120],0.5 ug/mi,0.25 ug/mi,0.25 ug/mi,0.25 ug/mi,0.25 ug/mi
CCCN1C[C@H](C)[C@@H](O)[C@](C)(O)[C@@H](CC)OC(=O)[C@H](C)[C@@H](O[C@H]2C[C@@](C)(OC)[C@](O)(CNCc3cccnc3)[C@H](C)O2)[C@H](C)[C@@H](O[C@@H]2O[C@H](C)C[C@H](N(C)C)[C@H]2O)[C@](C)(O)C[C@H]1C [syzx-121],0.5 ug/mi,0.25 ug/mi,0.5 ug/mi,0.25 ug/mi,0.25 ug/mi
CCCN1C[C@H](C)[C@@H](O)[C@](C)(O)[C@@H](CC)OC(=O)[C@H](C)[C@@H](O[C@H]2C[C@@](C)(OC)[C@](O)(CNCCCOCC)[C@H](C)O2)[C@H](C)[C@@H](O[C@@H]2O[C@H](C)C[C@H](N(C)C)[C@H]2O)[C@](C)(O)C[C@H]1C [syzx-122],1 ug/mi,0.5 ug/mi,0.25 ug/mi,1 ug/mi,1 ug/mi
CCCN1C[C@H](C)[C@@H](O)[C@](C)(O)[C@@H](CC)OC(=O)[C@H](C)[C@@H](O[C@H]2C[C@@](C)(OC)[C@](O)(CNCCOC)[C@H](C)O2)[C@H](C)[C@@H](O[C@@H]2O[C@H](C)C[C@H](N(C)C)[C@H]2O)[C@](C)(O)C[C@H]1C [syzx-125],2 ug/mi,0.5 ug/mi,0.25 ug/mi,0.5 ug/mi,1 ug/mi
CCCN1C[C@H](C)[C@@H](O)[C@](C)(O)[C@@H](CC)OC(=O)[C@H](C)[C@@H](O[C@H]2C[C@@](C)(OC)[C@](O)(CN(C)CCO)[C@H](C)O2)[C@H](C)[C@@H](O[C@@H]2O[C@H](C)C[C@H](N(C)C)[C@H]2O)[C@](C)(O)C[C@H]1C [syzx-126],2 ug/mi,4 ug/mi,0.5 ug/mi,4 ug/mi,4 ug/mi
CCCN1C[C@H](C)[C@@H](O)[C@](C)(O)[C@@H](CC)OC(=O)[C@H](C)[C@@H](O[C@H]2C[C@@](C)(OC)[C@](O)(CNCc3cccc(OC)c3)[C@H](C)O2)[C@H](C)[C@@H](O[C@@H]2O[C@H](C)C[C@H](N(C)C)[C@H]2O)[C@](C)(O)C[C@H]1C [syzx-127],8 ug/mi,1 ug/mi,0.25 ug/mi,1 ug/mi,4 ug/mi
CCCN1C[C@H](C)[C@@H](O)[C@](C)(O)[C@@H](CC)OC(=O)[C@H](C)[C@@H](O[C@H]2C[C@@](C)(OC)[C@](O)(CNC3CCCC3)[C@H](C)O2)[C@H](C)[C@@H](O[C@@H]2O[C@H](C)C[C@H](N(C)C)[C@H]2O)[C@](C)(O)C[C@H]1C [syzx-130],0.5 ug/mi,8 ug/mi,0.25 ug/mi,0.5 ug/mi,0.25 ug/mi
CCCN1C[C@H](C)[C@@H](O)[C@](C)(O)[C@@H](CC)OC(=O)[C@H](C)[C@@H](O[C@H]2C[C@@](C)(OC)[C@](O)(CNCc3ccc(F)cc3F)[C@H](C)O2)[C@H](C)[C@@H](O[C@@H]2O[C@H](C)C[C@H](N(C)C)[C@H]2O)[C@](C)(O)C[C@H]1C [syzx-131],0.5 ug/mi,0.25 ug/mi,0.25 ug/mi,0.25 ug/mi,0.25 ug/mi
CCCN1C[C@H](C)[C@@H](O)[C@](C)(O)[C@@H](CC)OC(=O)[C@H](C)[C@@H](O[C@H]2C[C@@](C)(OC)[C@](O)(CNc3ccc(Cl)nn3)[C@H](C)O2)[C@H](C)[C@@H](O[C@@H]2O[C@H](C)C[C@H](N(C)C)[C@H]2O)[C@](C)(O)C[C@H]1C [syzx-132],2 ug/mi,0.5 ug/mi,0.25 ug/mi,0.5 ug/mi,1 ug/mi
CCCN1C[C@H](C)[C@@H](O)[C@](C)(O)[C@@H](CC)OC(=O)[C@H](C)[C@@H](O[C@H]2C[C@@](C)(OC)[C@](O)(CNCCCCO)[C@H](C)O2)[C@H](C)[C@@H](O[C@@H]2O[C@H](C)C[C@H](N(C)C)[C@H]2O)[C@](C)(O)C[C@H]1C [syzx-133],2 ug/mi,0.5 ug/mi,0.5 ug/mi,1 ug/mi,1 ug/mi
CCCN1C[C@H](C)[C@@H](O)[C@](C)(O)[C@@H](CC)OC(=O)[C@H](C)[C@@H](O[C@H]2C[C@@](C)(OC)[C@](O)(CNC(C)CCc3ccccc3)[C@H](C)O2)[C@H](C)[C@@H](O[C@@H]2O[C@H](C)C[C@H](N(C)C)[C@H]2O)[C@](C)(O)C[C@H]1C (some centres unmarked) [syzx-134],0.5 ug/mi,0.25 ug/mi,0.25 ug/mi,0.25 ug/mi,0.25 ug/mi
CCCN1C[C@H](C)[C@@H](O)[C@](C)(O)[C@@H](CC)OC(=O)[C@H](C)[C@@H](O[C@H]2C[C@@](C)(OC)[C@](O)(CNCc3cccc(OC)c3)[C@H](C)O2)[C@H](C)[C@@H](O[C@@H]2O[C@H](C)C[C@H](N(C)C)[C@H]2O)[C@](C)(O)C[C@H]1C [syzx-135],2 ug/mi,0.5 ug/mi,0.5 ug/mi,1 ug/mi,1 ug/mi
CCCN1C[C@H](C)[C@@H](O)[C@](C)(O)[C@@H](CC)OC(=O)[C@H](C)[C@@H](O[C@H]2C[C@@](C)(OC)[C@](O)(CN3CCNCC3)[C@H](C)O2)[C@H](C)[C@@H](O[C@@H]2O[C@H](C)C[C@H](N(C)C)[C@H]2O)[C@](C)(O)C[C@H]1C [syzx-136],0.5 ug/mi,0.25 ug/mi,0.25 ug/mi,0.5 ug/mi,0.25 ug/mi
CCCN1C[C@H](C)[C@@H](O)[C@](C)(O)[C@@H](CC)OC(=O)[C@H](C)[C@@H](O[C@H]2C[C@@](C)(OC)[C@](O)(CNC(=O)C(F)(F)F)[C@H](C)O2)[C@H](C)[C@@H](O[C@@H]2O[C@H](C)C[C@H](N(C)C)[C@H]2O)[C@](C)(O)C[C@H]1C [syzx-137],2 ug/mi,0.5 ug/mi,1 ug/mi,0.5 ug/mi,0.5 ug/mi
